Earlier results as cited in patent publication US20080160503A1, “RAPID ANALYSIS OF ORAL BIOAVAILABILITY” (priority 2006, published 2008).

Settings: background statement; for first-pass metabolism: oral administration, gut wall and liver; for bioavailability through the oral route: no data shown

For `C[C@]12CC[C@H]3[C@@H](CCC4=CC(=O)CC[C@@]43C)[C@@H]1CC[C@@H]2O` [testosterone], the first-pass metabolism is listed as “extensive” and the “bioavailability through the oral route” value is listed as “virtually zero”.
In the case of `NC[C@H](O)c1ccc(O)c(O)c1` [norepinephrine], the “bioavailability through the oral route” value is listed as “virtually zero”.
For `CC(C)NCC(O)c1ccc(O)c(O)c1` (centres unmarked) [isoproterenol], the first-pass metabolism is listed as “extensive” and the “bioavailability through the oral route” value is listed as “virtually zero”.
